In US20120053200A1, “BACE 2 INHIBITORS” (priority 2010, published 2012):

Molecular target: T1, BACE2 (Rattus norvegicus, UniProt Q6IE75)
T1 construct: endogenous cellular BACE2 in the Ins1e rat cell line; endogenous in cells; host or cells: INS-TMEM27 (INS1e-derived rat beta-cell line with doxycycline-inducible full-length hTMEM27)
T1 sequence (Q6IE75 63-514): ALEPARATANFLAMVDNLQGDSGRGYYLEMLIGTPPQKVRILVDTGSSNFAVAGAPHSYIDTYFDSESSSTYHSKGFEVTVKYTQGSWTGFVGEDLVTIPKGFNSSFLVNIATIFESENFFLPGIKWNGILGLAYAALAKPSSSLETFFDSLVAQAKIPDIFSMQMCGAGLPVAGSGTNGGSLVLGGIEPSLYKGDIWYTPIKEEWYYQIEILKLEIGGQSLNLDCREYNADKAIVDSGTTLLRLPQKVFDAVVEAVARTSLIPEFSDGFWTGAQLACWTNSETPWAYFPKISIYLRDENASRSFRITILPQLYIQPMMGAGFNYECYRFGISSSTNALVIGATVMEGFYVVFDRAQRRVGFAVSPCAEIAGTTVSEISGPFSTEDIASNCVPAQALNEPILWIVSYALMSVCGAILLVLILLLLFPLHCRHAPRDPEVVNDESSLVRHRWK
Assay: Assay for BACE inhibition by measuring cellular TMEM27 cleavage (INS-TMEM27 cells, ELISA of shed TMEM27)
Assay type: cell-based
Conditions: inhibition of human TMEM27 cleavage by endogenous cellular BACE2 in INS1e-derived INS-TMEM27 rat cell line; ELISA of shed TMEM27 in supernatant
From the text: Assay for […] Inhibition by Measuring Cellular TMEM27 Cleavage
This assay uses the principle of inhibition of human TMEM27 cleavage by endogenous cellular BACE2 in the Ins1e rat cell line and shedding from the cell surface into the culture medium, followed by detection in an ELISA assay. Inhibition of BACE2 prevents the cleavage and shedding in a dose-dependent manner.
The stable cell line “INS-TMEM27” represents an INS1e-derived cell line with inducible expression (using the TetOn system) of full-length hTMEM27 in a doxycycline-dependent manner. The cells were cultured throughout the experiment in RPMI1640+Glutamax (Invitrogen) Penicillin/Streptomycin, 10% Fetal bovine serum, 100 mM pyruvate, […] beta-mercatptoethanol, 100 micrograms/ml G418 and 100 microgram/ml hygromycin and were grown in adherent culture at 37° C. in a standard CO2 cell culture incubator.
INS-TMEM27 cells were seeded in 96-well plates. After 2 days in culture, BACE2 inhibitor was added in a range of concentrations as required by the assay and after a further two hours, doxycycline was added to a final concentration of 500 ng/ml. The cells were incubated for a further 46 hours and the supernatant harvested for detection of shed TMEM27.
An ELISA assay (using a pair of mouse anti-human-TMEM27 antibodies, raised against the extracellular domain of TMEM27) was used for detection of TMEM27 in the culture medium. An IC50 for BACE2 inhibition was calculated using the ELISA readout for each inhibitor concentration with standard curve-fitting software.
The inhibitory activity, given as an IC50 value, of the compounds of Examples 1 to 32 and 34 to 74 were as follows.

| SMILES | IC50 [nM] |
| --- | --- |
| Cc1csc(CN(C)C(=O)c2cccc(C(=O)N[C@@H](Cc3ccccc3)[C@H](O)CNCc3cccc(C(F)(F)F)c3)c2)n1 [Example 1, N-[(1S,2R)-1-Benzyl-2-hydroxy-3-(3-trifluoromethyl-benzylamino)-propyl]-N′-methyl-N′-(4-methyl-thiazol-2-ylmethyl)-isophthalamide] | 205 |
| O=C(N[C@@H](Cc1ccccc1)[C@H](O)CNCc1cccc(C(F)(F)F)c1)c1cccc(C(=O)N2CCCC2c2cccc(Cl)c2)c1 (stereo partly drawn) [Example 57, N-[(1S,2R)-1-Benzyl-2-hydroxy-3-(3-trifluoromethyl-benzylamino)-propyl]-3-[2-(3-chloro-phenyl)-pyrrolidine-1-carbonyl]-benzamide] | 619 |
| CC1CCN(C(=O)c2cccc(C(=O)N[C@@H](Cc3ccccc3)[C@H](O)CNCc3cccc(C(F)(F)F)c3)c2)C1c1ccc(F)cc1 (stereo partly drawn) [Example 63, N-[(1S,2R)-1-Benzyl-2-hydroxy-3-(3-trifluoromethyl-benzylamino)-propyl]-3-[2-(4-fluoro-phenyl)-3-methyl-pyrrolidine-1-carbonyl]-benzamide] | 1 |
| O=C(N[C@@H](Cc1ccccc1)[C@H](O)CNCc1cccc(C(F)(F)F)c1)c1cccc(C(=O)N2CCCC2c2cccc(F)c2)c1 (stereo partly drawn) [Example 68, N-[(1S,2R)-1-Benzyl-2-hydroxy-3-(3-trifluoromethyl-benzylamino)-propyl]-3-[2-(3-fluoro-phenyl)-pyrrolidine-1-carbonyl]-benzamide] | 2 |
| Cc1csc([C@H]2CCCN2C(=O)c2cc(C(=O)N[C@@H](Cc3ccccc3)[C@H](O)CNCc3cccc(OC(F)(F)F)c3)cc(N(C)S(C)(=O)=O)c2)n1 [Example 41, N-[(1S,2R)-1-Benzyl-2-hydroxy-3-(3-trifluoromethoxy-benzylamino)-propyl]-3-(methanesulfonyl-methyl-amino)-5-[(R)-2-(4-methyl-thiazol-2-yl)-pyrrolidine-1-carbonyl]-benzamide] | 0.1 |
| Cc1ccc(C2CCCN2C(=O)c2cccc(C(=O)N[C@@H](Cc3ccccc3)[C@H](O)CNCc3cccc(C(F)(F)F)c3)c2)cc1 (stereo partly drawn) [Example 55, N-[(1S,2R)-1-Benzyl-2-hydroxy-3-(3-trifluoromethyl-benzylamino)-propyl]-3-(2-p-tolyl-pyrrolidine-1-carbonyl)-benzamide] | 42 |
| O=C(N[C@@H](Cc1ccccc1)[C@H](O)CNCc1cccc(C(F)(F)F)c1)c1cccc(C(=O)N2CCCC2c2ccccc2)c1 (stereo partly drawn) [Example 12, N-[(1S,2R)-1-Benzyl-2-hydroxy-3-(3-trifluoromethyl-benzylamino)-propyl]-3-(2-phenyl-pyrrolidine-1-carbonyl)-benzamide] | 75 |
| O=C(N[C@@H](Cc1ccccc1)[C@H](O)CNCc1cccc(C(F)(F)F)c1)c1cccc(C(=O)N2CCCC2c2ccc(F)c(Cl)c2)c1 (stereo partly drawn) [Example 59, N-[(1S,2R)-1-Benzyl-2-hydroxy-3-(3-trifluoromethyl-benzylamino)-propyl]-3-[2-(3-chloro-4-fluoro-phenyl)-pyrrolidine-1-carbonyl]-benzamide] | 33 |
| O=C(N[C@@H](Cc1ccccc1)[C@H](O)CNCc1cccc(C(F)(F)F)c1)c1cccc(C(=O)N2CCCC2C2CCCC2)c1 (stereo partly drawn) [Example 72, N-[(1S,2R)-1-Benzyl-2-hydroxy-3-(3-trifluoromethyl-benzylamino)-propyl]-3-(2-cyclopentyl-pyrrolidine-1-carbonyl)-benzamide] | 66 |
| Cc1cc(C(=O)N[C@@H](Cc2ccccc2)[C@H](O)CNCc2cccc(C(F)(F)F)c2)cc(C(=O)N(C)Cc2ccccn2)c1 [Example 52, N-[(1S,2R)-1-Benzyl-2-hydroxy-3-(3-trifluoromethyl-benzylamino)-propyl]-5,N′-dimethyl-N′-pyridin-2-ylmethyl-isophthalamide] | 95 |
| CCn1cc(CNC[C@@H](O)[C@H](Cc2ccccc2)NC(=O)c2cc(C(=O)N3CCCC3c3ccccc3)cc(N(C)S(C)(=O)=O)c2)cn1 (stereo partly drawn) [Example 35, N-{(1S,2R)-1-Benzyl-3-[(1-ethyl-1H-pyrazol-4-ylmethyl)-amino]-2-hydroxy-propyl}-3-(methanesulfonyl-methyl-amino)-5-(2-phenyl-pyrrolidine-1-carbonyl)-benzamide] | 0.2 |
| Cc1cc(C(=O)N[C@@H](Cc2ccccc2)[C@H](O)CNCc2cccc(OC(F)(F)F)c2)cc(C(=O)N(C)Cc2ccccn2)c1 [Example 44, N-[(1S,2R)-1-Benzyl-2-hydroxy-3-(3-trifluoromethoxy-benzylamino)-propyl]-5,N′-dimethyl-N′-pyridin-2-ylmethyl-isophthalamide] | 49 |
| COc1ccc(C2CCCN2C(=O)c2cccc(C(=O)N[C@@H](Cc3ccccc3)[C@H](O)CNCc3cccc(C(F)(F)F)c3)c2)cc1 (stereo partly drawn) [Example 56, N-[(1S,2R)-1-Benzyl-2-hydroxy-3-(3-trifluoromethyl-benzylamino)-propyl]-3-[2-(4-methoxy-phenyl)-pyrrolidine-1-carbonyl]-benzamide] | 115 |
| Cc1csc(CN(C)C(=O)c2cc(C(=O)N[C@@H](Cc3ccccc3)[C@H](O)CNCc3cncc(C(C)(C)F)c3)cc(N(C)S(C)(=O)=O)c2)n1 [Example 74, N-((1S,2R)-1-Benzyl-3-{[5-(1-fluoro-1-methyl-ethyl)-pyridin-3-ylmethyl]-amino}-2-hydroxy-propyl)-5-(methanesulfonyl-methyl-amino)-N′-methyl-N′-(4-methyl-thiazol-2-ylmethyl)-isophthalamide] | 255 |
| Cc1cc(C(=O)N[C@@H](Cc2ccccc2)[C@H](O)CNCc2cccc(OC(F)(F)F)c2)cc(C(=O)N2CCCC2c2cccs2)c1 (stereo partly drawn) [Example 46, N-[(1S,2R)-1-Benzyl-2-hydroxy-3-(3-trifluoromethoxy-benzylamino)-propyl]-3-methyl-5-(2-thiophen-2-yl-pyrrolidine-1-carbonyl)-benzamide] | 1 |
| CCn1cc(CNC[C@@H](O)[C@H](Cc2ccccc2)NC(=O)c2cc(C)cc(C(=O)N3CCCC3c3ccccc3)c2)cn1 (stereo partly drawn) [Example 36, N-{(1S,2R)-1-Benzyl-3-[(1-ethyl-1H-pyrazol-4-ylmethyl)-amino]-2-hydroxy-propyl}-3-methyl-5-(2-phenyl-pyrrolidine-1-carbonyl)-benzamide] | 1 |
| CCn1cc(CNC[C@@H](O)[C@H](Cc2ccccc2)NC(=O)c2cc(C)cc(C(=O)N3CCCC3c3cccs3)c2)cn1 (stereo partly drawn) [Example 39, N-{(1S,2R)-1-Benzyl-3-[(1-ethyl-1H-pyrazol-4-ylmethyl)-amino]-2-hydroxy-propyl}-3-methyl-5-(2-thiophen-2-yl-pyrrolidine-1-carbonyl)-benzamide] | 1 |
| O=C(N[C@@H](Cc1ccccc1)[C@H](O)CNCc1cccc(OC(F)(F)F)c1)c1cccc(C(=O)N2CCCC2c2ccccc2)c1 (stereo partly drawn) [Example 24, N-[(1S,2R)-1-Benzyl-2-hydroxy-3-(3-trifluoromethoxy-benzylamino)-propyl]-3-(2-phenyl-pyrrolidine-1-carbonyl)-benzamide] | 68 |
| Cc1csc(CN(C)C(=O)c2cccc(C(=O)N[C@@H](Cc3ccccc3)[C@H](O)CNCc3cccc(OC(F)(F)F)c3)c2)n1 [Example 2, N-[(1S,2R)-1-Benzyl-2-hydroxy-3-(3-trifluoromethoxy-benzylamino)-propyl]-N′-methyl-N′-(4-methyl-thiazol-2-ylmethyl)-isophthalamide] | 258 |
| O=C(N[C@@H](Cc1ccccc1)[C@H](O)CNCc1cccc(C(F)(F)F)c1)c1cccc(C(=O)N2CCCC2c2ccncc2)c1 (stereo partly drawn) [Example 5, N-[(1S,2R)-1-Benzyl-2-hydroxy-3-(3-trifluoromethyl-benzylamino)-propyl]-3-(2-pyridin-4-yl-pyrrolidine-1-carbonyl)-benzamide] | 140 |
| COc1cccc(CNC[C@@H](O)[C@H](Cc2ccccc2)NC(=O)c2cccc(C(=O)N(C)Cc3ccccn3)c2)c1 [Example 28, N-[(1S,2R)-1-Benzyl-2-hydroxy-3-(3-methoxy-benzylamino)-propyl]-N′-methyl-N′-pyridin-2-ylmethyl-isophthalamide] | 511 |
| Cc1noc(C2CCCN2C(=O)c2cccc(C(=O)N[C@@H](Cc3ccccc3)[C@H](O)CNCc3cccc(C(F)(F)F)c3)c2)n1 (stereo partly drawn) [Example 17, N-[(1S,2R)-1-Benzyl-2-hydroxy-3-(3-trifluoromethyl-benzylamino)-propyl]-3-[2-(3-methyl-[1,2,4]oxadiazol-5-yl)-pyrrolidine-1-carbonyl]-benzamide] | 213 |
